According to patent publication US20090186766A1, “Heteroaroyl-Substituted Alanines with a Herbicidal Action” (BASF SE, priority 2006, published 2009):

Key:
Chenopodium album = assay: Greenhouse post-emergence herbicidal test; format: in vivo
Source text: (§1) The seeds of the test plants were sown separately for each species. For the post-emergence treatment, the test plants were first grown to a height of 3 to 15 cm, depending on the plant habit, and only then treated with the active compounds which had been suspended or emulsified in water. For this purpose, the test plants were either sown directly and grown in the same containers, or they were first grown separately as seedlings and transplanted into the test containers a few days prior to treatment. […] (active substance). Depending on the species, the plants were kept at 10-25° C. or 20-35° C. The test period extended over 2 to 4 weeks. During this time, the plants were tended, and their response to the individual treatments was evaluated. Evaluation was carried out using a scale from 0 to 100. 100 means no emergence of the plants, or complete destruction of at least the aerial parts, and 0 means no damage, or normal course of growth. The plants used in the greenhouse experiments belonged to the following species: [table]

Amaranthus retroflexus = assay: Greenhouse post-emergence herbicidal test; format: in vivo
Source text: as §1

Setaria viridis = assay: Greenhouse post-emergence herbicidal test; format: in vivo; settings: application rate 1 kg/ha
Source text: The seeds of the test plants were sown separately for each species. For the post-emergence treatment, the test plants were first grown to a height of 3 to 15 cm, depending on the plant habit, and only then treated with the active compounds which had been suspended or emulsified in water. For this purpose, the test plants were either sown directly and grown in the same containers, or they were first grown separately as seedlings and transplanted into the test containers a few days prior to treatment. The rate of application for the post-emergence treatment was 1.0 kg/ha of a.s. (active substance). Depending on the species, the plants were kept at 10-25° C. or 20-35° C. The test period extended over 2 to 4 weeks. During this time, the plants were tended, and their response to the individual treatments was evaluated. Evaluation was carried out using a scale from 0 to 100. 100 means no emergence of the plants, or complete destruction of at least the aerial parts, and 0 means no damage, or normal course of growth. The plants used in the greenhouse experiments belonged to the following species: [table]

Galium aparine = assay: Greenhouse post-emergence herbicidal test; format: in vivo; settings: application rate 0.25 kg/ha
Source text: as §1

| melting point [°C] | Structure (SMILES) | post-emergence action against Chenopodium album (Chenopodium album; application rate 1 kg/ha) | post-emergence action against Amaranthus retroflexus (Amaranthus retroflexus; application rate 1 kg/ha) | post-emergence action against Setaria viridis (Setaria viridis) | post-emergence action against Galium aparine (Galium aparine) | post-emergence action against Chenopodium album (Chenopodium album; application rate 0.25 kg/ha) | post-emergence action against Amaranthus retroflexus (Amaranthus retroflexus; application rate 0.25 kg/ha) |
| --- | --- | --- | --- | --- | --- | --- | --- |
| 194 | CNC(=O)C(NC(=O)c1cn(C)nc1C(F)(F)F)C(CO)c1ccccc1 (racemic) [Compound 3.1, N-(3-hydroxy-1-methylcarbamoyl-2-phenyl-propyl)-1-methyl-3-trifluoromethyl-1H-pyrazole-4-carboxamide] | very good | very good | very good |  |  |  |
| 202 | CNC(=O)C(NC(=O)c1cn(C)nc1C(F)(F)F)C(CO)c1ccccc1 (racemic) [Compound 3.2, N-(3-hydroxy-1-methylcarbamoyl-2-phenyl-propyl)-1-methyl-3-trifluoromethyl-1H-pyrazole-4-carboxamide] | very good | very good | very good |  |  |  |
| 91 | CNC(=O)[C@@H](NC(=O)c1cn(C)nc1C(F)(F)F)[C@H](CN)c1ccccc1 (racemic) [Compound 4.5, N-{(1RS,2RS)-3-Amino-1-[(methylamino)carbonyl]-2-phenylpropyl}-1-methyl-3-(trifluoromethyl)-1H-pyrazole-4-carboxamide] |  |  |  |  |  |  |
| 233 | CNC(=O)[C@H](NC(=O)c1cn(C)nc1C(F)(F)F)[C@H](CNC(=O)C(F)(F)F)c1ccccc1 (racemic) [Compound 4.17, 1-Methyl-N-{(1RS,2SR)-1-[(methylamino)carbonyl]-2-phenyl-3-(2,2,2-trifluoroacetylamino)propyl}-3-(trifluoromethyl)-1H-pyrazole-4-carboxamide] |  |  |  |  |  |  |
| 119 | CNC(=O)[C@H](NC(=O)c1cn(C)nc1C(F)(F)F)[C@H](C[N+](=O)[O-])c1ccccc1 (racemic) [Compound 5.3, 1-Methyl-N-{(1RS,2SR)-1-[(methylamino)carbonyl]-3-nitro-2-phenylpropyl}-3-(trifluoromethyl)-1H-pyrazole-4-carboxamide] |  |  |  | very good | very good | very good |
|  | CNC(=O)C(NC(=O)c1cn(C)nc1C(F)(F)F)C(COC(C)=O)c1ccccc1 (single isomer, unassigned) [Compound 3.7, 3-Methylcarbamoyl-3-[(1-methyl-3-trifluoromethyl-1H-pyrazole-4-carbonyl)amino]-2-phenylpropyl Acetate] | very good | very good | very good |  |  |  |
